# How the values were obtained:
# [1] = target: T1, 5′ FLAG-tagged human ribokinase (Homo sapiens, UniProt Q9H477); assay: Ribokinase assay (kinase reaction with isolated FLAG-tagged ribokinase); type: biochemical; details: 20 minutes at 37° C., 3 mM ATP
# T1 construct: host or cells: 293T cells, transfected with pMSCV-IRES-YFP (pRBKS); captured with anti-FLAG M2 magnetic beads and eluted with FLAG peptide
# Procedure: Human ribokinase plasmid was purchased from OriGene (NM_022128.1). A FLAG sequence was appended 5′ to the ribokinase sequence and the FLAG-tagged ribokinase was subcloned into the retroviral vector pMSCV-IRES-YFP (pRBKS). 293T cells were transfected with the pRBKS vector and Lipofectamine 2000 (Invitrogen) according to manufacturer's protocol. Cells were lysed in RIPA buffer (1% NP-40, 1% Sodium deoxycholate, 0.3% Sodium dodecyl sulfate, […], 1 mM EDTA, 50 mM Tris-HCl pH 6.8). Protein concentration was determined by the BCA Protein Assay Kit (Pierce), and FLAG-tagged ribokinase was captured from 1 mg of lysate with anti-FLAG M2 Magnetic Beads (Sigma) and eluted with 100 μL of FLAG peptide (Sigma), as per the manufacturer's protocol. Cells not transfected with RBKS were lysed as a control.
# 1 μL of FLAG-tagged ribokinase or control eluent was added to 50 mM Tris-HCl, pH 7.8, 3 mM ATP, 100 mM KCl, 10 mM MgCl2, 1× protease inhibitor cocktail (Roche), and 1 μCi [^3H]-Ribose (Moravek) or [^18F]-FDA in a 10 μL volume. […] In the case of [^3H]-ribose, the samples were dried, placed into scintillation vials, 3 mL of Bio-Safe NA (RPI Corp) was added to each vial, and the samples were measured on a scintillation counter. In the case of [^18F]-FDA, the samples were placed into scintillation vials and counted on a gamma counter. […]
# [2] = test system: non-oxidative pentose phosphate pathway; assay: Mass spectrometry analysis of 2-fluoro-2-deoxyarabinose metabolites in mouse organs (MRM LC-MS); type: in vivo; details: mice
# Procedure: Mice (8-12 weeks old) were treated with 25 μL of 500 mM 2-fluoro-2-deoxyarabinose. 1 hour later, the mice were sacrificed and the metabolites from distinct organs were extracted with 3× with 80% MeOH. Extracted metabolites were dried and analyzed by multiple reaction monitoring liquid chromatography-mass spectrometry (MRM LC-MS).
# [3] = Positron emission tomography / computed tomography imaging of mice; type: in vivo; details: for tissues in which the probe selectively accumulates: mice, positron emission tomography
# Procedure: Positron Emission Tomography, Computed Tomography Imaging. 6-12-week old C57BL/6J female mice and 12-week old female B6.V-Lep^ob/J (Ob/Ob) mice were purchased from the Jackson Laboratory. Animals were anesthetized with 2% isofluorane and injected intravenous in the tail vein with 75-150 μCi of [^18F]-FDA. One hour post-injection, the mice were imaged for 10 minutes on a Siemens Inveon PET scanner and 10 minutes on a MicroCAT II CT system. […] Journal of Digital Imaging 17 (3), 205 (2004)).
# [4] = test system: enzymes in the pentose phosphate pathway; assay: Enzymes that metabolize 2-fluoro-2-deoxyarabinose in vitro (FIG. 6); type: in vitro ADME
# T1 sequence (Q9H477 whole entry): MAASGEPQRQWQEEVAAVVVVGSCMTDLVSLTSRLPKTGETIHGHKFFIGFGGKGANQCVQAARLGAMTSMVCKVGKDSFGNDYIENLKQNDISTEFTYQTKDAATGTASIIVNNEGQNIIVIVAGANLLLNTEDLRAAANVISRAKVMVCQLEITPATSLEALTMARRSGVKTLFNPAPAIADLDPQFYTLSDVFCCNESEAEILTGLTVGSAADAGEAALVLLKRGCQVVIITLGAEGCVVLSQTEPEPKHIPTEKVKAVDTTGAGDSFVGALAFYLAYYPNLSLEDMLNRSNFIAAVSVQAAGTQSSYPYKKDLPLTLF
Compound,phosphorylation by isolated ribokinase [1],metabolic pathway and metabolite in vivo ([2]; in vivo),tissues that metabolize the probe ([2]; metabolite studies),"localization of probe to the liver ([3]; 12 week old C57Bl/6 female (wild-type) mice, 1 hour, PET/CT)",tissues in which the probe selectively accumulates [3],tissues in which the probe selectively accumulates ([3]; listed as 18F labelled 2-fluoro-2-deoxyarabinose),metabolism by enzymes in vitro [4]
[^3H]-Ribose [reference compound],phosphorylates,–,–,–,–,–,–
"OC[C@H]1O[C@@H](O)C([18F])C1O (some centres unmarked) [[^18F]-FDA, [^18F]-2-fluoro-2-deoxyarabinose]",phosphorylates,metabolized in vivo by the non-oxidative pentose phosphate pathway to 4-fluoro-4-deoxysedoheptulose-7-phosphate,"metabolized by tissues in addition to the liver, including the spleen, muscles, heart, blood, thyroid, and kidneys",localizing significantly to the liver,accumulates in organs with high levels of ribokinase,"murine liver, kidney and intestinal tissues",enzymes in the pentose phosphate pathway metabolize
